In US12528815B2, “5-amino-8-(4-pyridyl)-[1,2,4]triazolo[4,3-c]pyrimidin-3-one compounds for use against cancer” (Nxera Pharma UK Limited, priority 2020, dated 2026):

Columns and labels:
[1] = molecular target: T1, human adenosine A2A receptor (Homo sapiens, UniProt P29274); assay: Inhibition binding assay, human adenosine A2A receptor membranes, [3H]ZM241385; conditions: 1 nM [3H]ZM241385, HEK293-hA2A membranes, 25° C., 1 h; IC50 converted to Ki with Cheng-Prusoff; read-out: A2A pKi (converted)
T1 construct: expressed in transfected cells; host or cells: HEK293 cells infected with BacMam
How it was run: (§1)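 Membranes from BacMam-infected HEK293 cells (0.2 μg A2A, 1.4 μg A1) incubated 1 h at 25° C with test compound and 1 nM [3H]ZM241385 (A2A; 50 mM Tris-HCl pH 7.4) or [3H]DPCPX (A1; plus 100 mM NaCl, 10 mM MgCl2). Nonspecific: 1 μM CGS15943 or DPCPX. Filtration, scintillation; IC50 converted to Ki via Cheng-Prusoff.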

[2] = molecular target: T2, human adenosine A1 receptor (Homo sapiens, UniProt P30542); assay: Inhibition binding assay, human adenosine A1 receptor membranes, [3H]DPCPX; conditions: 1 nM [3H]DPCPX, 25° C., 1 h; IC50 converted to Ki with Cheng-Prusoff; read-out: A1 pKi (converted)
T2 construct: expressed in transfected cells; host or cells: HEK293 cells infected with BacMam (the same paragraph also labels the preparation CHO-hA1)
T2 sequence (P30542 1-326): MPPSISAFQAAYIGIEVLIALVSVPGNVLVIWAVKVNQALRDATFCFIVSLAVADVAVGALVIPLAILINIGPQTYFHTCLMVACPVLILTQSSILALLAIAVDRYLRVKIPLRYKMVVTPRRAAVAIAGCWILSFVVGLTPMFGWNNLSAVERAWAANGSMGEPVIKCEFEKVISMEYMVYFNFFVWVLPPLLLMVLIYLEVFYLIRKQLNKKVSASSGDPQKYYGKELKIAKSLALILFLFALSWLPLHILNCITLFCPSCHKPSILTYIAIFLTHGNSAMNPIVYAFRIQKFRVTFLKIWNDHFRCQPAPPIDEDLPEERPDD
How it was run: as §1

T1 sequence (P29274 whole entry): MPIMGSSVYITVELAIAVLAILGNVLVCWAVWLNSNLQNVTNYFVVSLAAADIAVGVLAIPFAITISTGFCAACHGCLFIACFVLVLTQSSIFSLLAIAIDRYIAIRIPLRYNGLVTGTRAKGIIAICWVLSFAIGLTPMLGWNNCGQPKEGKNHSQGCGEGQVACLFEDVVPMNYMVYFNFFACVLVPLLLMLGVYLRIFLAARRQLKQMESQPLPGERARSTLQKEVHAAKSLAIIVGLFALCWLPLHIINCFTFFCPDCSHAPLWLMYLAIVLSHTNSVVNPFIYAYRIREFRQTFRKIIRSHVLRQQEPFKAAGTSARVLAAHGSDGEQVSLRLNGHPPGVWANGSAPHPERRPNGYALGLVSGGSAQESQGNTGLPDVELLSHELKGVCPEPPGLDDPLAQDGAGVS

Row | Compound | Ki [1] | Ki [2]
1 | Cc1cc(-c2c(-c3ccc(F)cc3)nc(N)n3c(=O)n(Cc4ccc(C#N)cn4)nc23)cc(CO)n1 [Example 1-63, 6-[[5-amino-7-(4-fluorophenyl)-8-[2-(hydroxymethyl)-6-methyl-4-pyridyl]-3-oxo-[1,2,4]triazolo[4,3-c]pyrimidin-2-yl]methyl]pyridine-3-carbonitrile] | 631 nM | > 3980 nM
2 | Cc1cc(-c2c(-c3ccccc3)nc(N)n3c(=O)n(Cc4ccc(F)c(O)n4)nc23)cc(CO)n1 [Example 1-48, 5-amino-2-[(5-fluoro-6-hydroxy-2-pyridyl)methyl]-8-[2-(hydroxymethyl)-6-methyl-4-pyridyl]-7-phenyl-[1,2,4]triazolo[4,3-c]pyrimidin-3-one] | 10 nM | > 2510 nM
3 | Cc1cc(-c2c(-c3ccccc3)nc(N)n3c(=O)n(C[C@@H]4CN(C(=O)OC(C)(C)C)CCN4C)nc23)cc(C)n1 [Example 2-83, tert-butyl (S)-3-((5-amino-8-(2,6-dimethylpyridin-4-yl)-3-oxo-7-phenyl-[1,2,4]triazolo[4,3-c]pyrimidin-2(3H)-yl)methyl)-4-methylpiperazine-1-carboxylate] | 10 nM | 1000 nM
4 | COC(=O)c1cc(-c2c(-c3ccccc3)nc(N)n3c(=O)n(CCC(F)(F)F)nc23)cc(C)n1 [Example 2-52, methyl 4-[5-amino-3-oxo-7-phenyl-2-(3,3,3-trifluoropropyl)-[1,2,4]triazolo[4,3-c]pyrimidin-8-yl]-6-methyl-pyridine-2-carboxylate] | 0.631 nM | 200 nM
5 | Cc1cc(-c2c(-c3ccc(C)o3)nc(N)n3c(=O)n(CCC(F)(F)F)nc23)cc(C)n1 [Example 2-43, 5-amino-8-(2,6-dimethyl-4-pyridyl)-7-(5-methyl-2-furyl)-2-(3,3,3-trifluoropropyl)-[1,2,4]triazolo[4,3-c]pyrimidin-3-one] | 2 nM | 501 nM
6 | CCCn1nc2c(-c3cc(C)nc(C)c3)c(-c3ccccc3)nc(N)n2c1=O [Example 2-20, 5-amino-8-(2,6-dimethyl-4-pyridyl)-7-phenyl-2-propyl-[1,2,4]triazolo[4,3-c]pyrimidin-3-one] | 3.98 nM | 501 nM
7 | Cc1cc(-c2c(-c3ccccc3)nc(N)n3c(=O)n([C@@H]4CCCc5ccc(F)cc54)nc23)cc(C)n1 [Example 1-14, (R)-5-amino-8-(2,6-dimethyl-4-pyridyl)-2-(7-fluorotetralin-1-yl)-7-phenyl-[1,2,4]triazolo[4,3-c]pyrimidin-3-one] | 3.16 nM | 20 nM
8 | Cc1cc(-c2c(N3CCCCC3)nc(N)n3c(=O)n(CCC(F)(F)F)nc23)cc(C)n1 [Example 3-2, 5-amino-8-(2,6-dimethyl-4-pyridyl)-7-(1-piperidyl)-2-(3,3,3-trifluoropropyl)-[1,2,4]triazolo[4,3-c]pyrimidin-3-one] | 6.31 nM | > 3160 nM
9 | Cc1cc(-c2c(-c3ccccc3)nc(N)n3c(=O)n(Cc4cccnn4)nc23)cc(C)n1 [Example 1-5, 5-amino-8-(2,6-dimethyl-4-pyridyl)-7-phenyl-2-(pyridazin-3-ylmethyl)-[1,2,4]triazolo[4,3-c]pyrimidin-3-one] | 2.51 nM | 251 nM
10 | Cc1cc(-c2c(-c3ccccc3)nc(N)n3c(=O)n(CC4CCCOC4)nc23)cc(C)n1 (single isomer, unassigned) [Example 2-81-iso-2, 5-amino-8-(2,6-dimethyl-4-pyridyl)-7-phenyl-2-(tetrahydropyran-3-ylmethyl)-[1,2,4]triazolo[4,3-c]pyrimidin-3-one] | 1 nM | 126 nM
11 | Cc1cc(-c2c(-c3ccc(F)cc3)nc(N)n3c(=O)n(CCN4CCCCC4)nc23)cc(Cl)n1 [Example 2-105, 5-amino-8-(2-chloro-6-methyl-4-pyridyl)-7-(4-fluorophenyl)-2-[2-(1-piperidyl)ethyl]-[1,2,4]triazolo[4,3-c]pyrimidin-3-one] | 31.6 nM | > 2510 nM
12 | Cc1cc(-c2c(-c3ccccc3)nc(N)n3c(=O)n(CCOS(C)(=O)=O)nc23)cc(C)n1 [Example 2-9, 2-[5-amino-8-(2,6-dimethyl-4-pyridyl)-3-oxo-7-phenyl-[1,2,4]triazolo[4,3-c]pyrimidin-2-yl]ethyl methanesulfonate] | 20 nM | 631 nM
13 | Cc1cc(-c2c(-c3ccccc3)nc(N)n3c(=O)n(C[C@H]4CN(C(=O)OC(C)(C)C)CCO4)nc23)cc(C)n1 [Example 2-65, tert-butyl (R)-2-((5-amino-8-(2,6-dimethylpyridin-4-yl)-3-oxo-7-phenyl-[1,2,4]triazolo[4,3-c]pyrimidin-2(3H)-yl)methyl)morpholine-4-carboxylate] | 12.6 nM | 501 nM
14 | Cc1cc(-c2c(-c3ccccc3)nc(N)n3c(=O)n(CCC4CCN(C)CC4)nc23)cc(C)n1 [Example 2-97, 5-amino-8-(2,6-dimethyl-4-pyridyl)-2-[2-(1-methyl-4-piperidyl)ethyl]-7-phenyl-[1,2,4]triazolo[4,3-c]pyrimidin-3-one] | 6.31 nM | 631 nM
15 | Cc1cc(-c2c(-c3ccccc3)nc(N)n3c(=O)n(CC4CCCS(=O)(=O)C4)nc23)cc(C)n1 (single isomer, unassigned) [Example 2-89-iso-2, 5-amino-8-(2,6-dimethyl-4-pyridyl)-2-[(1,1-dioxothian-3-yl)methyl]-7-phenyl-[1,2,4]triazolo[4,3-c]pyrimidin-3-one] | 25.1 nM | 316 nM
16 | [2H]c1c([2H])c([2H])c(-c2nc(N)n3c(=O)n(CCC(F)(F)F)nc3c2-c2cc(C)nc(C)c2)c([2H])c1[2H] [Example 2-32, 5-amino-8-(2,6-dimethyl-4-pyridyl)-7-(2,3,4,5,6-pentadeuteriophenyl)-2-(3,3,3-trifluoropropyl)-[1,2,4]triazolo[4,3-c]pyrimidin-3-one] | 0.501 nM | 398 nM
17 | Cc1cc(-c2c(-c3ccccc3)nc(N)n3c(=O)n(Cc4ccccc4SC(F)F)nc23)cc(C)n1 [Example 1-16, 5-amino-2-[[2-(difluoromethylsulfanyl)phenyl]methyl]-8-(2,6-dimethyl-4-pyridyl)-7-phenyl-[1,2,4]triazolo[4,3-c]pyrimidin-3-one] | 0.251 nM | 1 nM
18 | Cc1cc(-c2c(-c3ccccc3)nc(N)n3c(=O)n(CC4CCCCO4)nc23)cc(CO)n1 (single isomer, unassigned) [Example 2-91-iso-2, 5-amino-8-[2-(hydroxymethyl)-6-methyl-4-pyridyl]-7-phenyl-2-(tetrahydropyran-2-ylmethyl)-[1,2,4]triazolo[4,3-c]pyrimidin-3-one] | 1.58 nM | 251 nM
19 | Cc1cc(-c2c(-c3ccccc3)nc(N)n3c(=O)n(CCCN4CCCCC4)nc23)cc(C)n1 [Example 2-111, 5-amino-8-(2,6-dimethyl-4-pyridyl)-7-phenyl-2-[3-(1-piperidyl)propyl]-[1,2,4]triazolo[4,3-c]pyrimidin-3-one] | 398 nM | > 3980 nM
20 | Cc1cc(-c2c(-c3ccc(F)cc3)nc(N)n3c(=O)n(Cc4ccc(F)c(N)n4)nc23)cc(CO)n1 [Example 1-60, 5-amino-2-[(6-amino-5-fluoro-2-pyridyl)methyl]-7-(4-fluorophenyl)-8-[2-(hydroxymethyl)-6-methyl-4-pyridyl]-[1,2,4]triazolo[4,3-c]pyrimidin-3-one] | 1.58 nM | 794 nM
21 | Cc1cc(-c2c(-c3ccccc3)nc(N)n3c(=O)n(Cc4ccc(O)nn4)nc23)cc(C)n1 [Example 1-37, 5-amino-8-(2,6-dimethyl-4-pyridyl)-2-[(6-hydroxypyridazin-3-yl)methyl]-7-phenyl-[1,2,4]triazolo[4,3-c]pyrimidin-3-one] | 63.1 nM | > 3160 nM
22 | CCC1(C)CC1Cn1nc2c(-c3cc(C)nc(C)c3)c(-c3ccccc3)nc(N)n2c1=O (centres unmarked) [Example 2-27, 5-amino-8-(2,6-dimethyl-4-pyridyl)-2-[(2-ethyl-2-methyl-cyclopropyl)methyl]-7-phenyl-[1,2,4]triazolo[4,3-c]pyrimidin-3-one] | 0.631 nM | 31.6 nM
23 | Cc1cc(-c2c(-c3ccccc3)nc(N)n3c(=O)n(CCCF)nc23)cc(C)n1 [Example 2-8, 5-amino-8-(2,6-dimethyl-4-pyridyl)-2-(3-fluoropropyl)-7-phenyl-[1,2,4]triazolo[4,3-c]pyrimidin-3-one] | 1.58 nM | 316 nM
24 | Cc1cc(-c2c(-c3ccccc3)nc(N)n3c(=O)n(CC45CC(F)(C4)C5)nc23)cc(CO)n1 [Example 2-59, 5-amino-2-[(3-fluoro-1-bicyclo[1.1.1]pentanyl)methyl]-8-[2-(hydroxymethyl)-6-methyl-4-pyridyl]-7-phenyl-[1,2,4]triazolo[4,3-c]pyrimidin-3-one] | 3.98 nM | 316 nM
25 | Cc1cc(-c2c(-c3ccccc3)nc(N)n3c(=O)n(C[C@@H]4CN(C(=O)OC(C)(C)C)CCO4)nc23)cc(C)n1 [Example 2-69, tert-butyl (2S)-2-[[5-amino-8-(2,6-dimethyl-4-pyridyl)-3-oxo-7-phenyl-[1,2,4]triazolo[4,3-c]pyrimidin-2-yl]methyl]morpholine-4-carboxylate] | 6.31 nM | 398 nM
